Measurements: article PMC4806279, “Metabolism and Metabolic Inhibition of Xanthotoxol in Human Liver Microsomes” (Evidence-based Complementary and Alternative Medicine : eCAM, 2016)

Assays:
[1] = system: cytochrome P450s (CYPs); assay: Inhibition of xanthotoxol metabolite production in HLMs by a nonspecific CYP inhibitor; type: in vitro ADME, human; conditions: xanthotoxol as substrate, 500 μM ABT
Experimental: Inhibition study was conducted using the above incubation system consisting of liver microsomes, NADPH-generating system, probe substrate at the concentration of about K m value, and xanthotoxol (or the control inhibitor). The concentrations of positive inhibitors used were as follows: 10 μM furafylline for CYP1A2, 2.5 μM 8-methoxypsoralen for CYP2A6, 10 μM quercetin for CYP2C8, 10 μM sulfaphenazole for CYP2C9, 10 μM quinidine for CYP2D6, 50 μM clomethiazole for CYP2E1, 20 μM omeprazole for CYP2C19, 1 μM ketoconazole for CYP3A4, and 500 μM ABT for broad CYP450s. […]

[2] = target: T1, CYP1A2 (Homo sapiens, UniProt P05177); assay: Inhibition of phenacetin o-deethylation in human liver microsomes; type: in vitro ADME
T1 construct: The HLMs were prepared from eleven individual human donor livers; tissue Research Institute for Liver Disease Co. (Shanghai, China); host or cells: human liver microsomes, pool of eleven donors
T1 sequence (P05177 1-516): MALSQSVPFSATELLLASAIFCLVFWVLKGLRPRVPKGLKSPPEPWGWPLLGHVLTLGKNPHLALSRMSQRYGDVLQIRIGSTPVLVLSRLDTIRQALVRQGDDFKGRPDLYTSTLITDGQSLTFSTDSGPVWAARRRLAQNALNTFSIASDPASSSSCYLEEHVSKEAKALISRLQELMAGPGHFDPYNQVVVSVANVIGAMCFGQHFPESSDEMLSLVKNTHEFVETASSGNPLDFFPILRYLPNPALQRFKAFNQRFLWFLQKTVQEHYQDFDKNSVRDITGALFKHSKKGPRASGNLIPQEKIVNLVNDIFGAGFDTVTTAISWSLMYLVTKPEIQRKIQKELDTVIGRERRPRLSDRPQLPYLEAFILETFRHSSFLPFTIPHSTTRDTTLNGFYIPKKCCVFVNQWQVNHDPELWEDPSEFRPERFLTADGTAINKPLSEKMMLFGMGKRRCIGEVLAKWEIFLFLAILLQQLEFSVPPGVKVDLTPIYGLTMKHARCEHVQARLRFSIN
Experimental: (§1) Liver microsomes from human (HLMs) used in this study were provided by the Research Institute for Liver Disease Co. (Shanghai, China). The HLMs were prepared from eleven individual human donor livers. Protein concentration and microsomes activities of CYP2C19, CYP2A6, CYP2C8, CYP2D6, CYP1A2, CYP2C9, CYP2E1, and CYP3A4 had been previously characterized by the Research Institute for Liver Disease Co.
(§2) HLMs phenacetin o-deethylation, coumarin 7-hydroxylation, paclitaxel 6α-hydroxylation, diclofenac 4′-hydroxylation, dextromethorphan o-demethylation, chlorzoxazone 6-hydroxylation, testosterone 6β-hydroxylation, and S-mephenytoin 4′-hydroxylation activities were utilized as selective markers for CYP1A2, CYP2A6, CYP2C8, CYP2C9, CYP2D6, CYP2E1, CYP3A4, and CYP2C19.
(§3) The optimal conditions for microsomal incubation were described previously. The incubation mixture, with a total volume of 200 μL, consisted of 100 mM potassium phosphate buffer (pH 7.4), an NADPH-generating system (10 mM glucose 6-phosphate, 1 unit/mL of glucose 6-phosphate dehydrogenase, and 4 mM MgCl2), liver microsomes (0.3 mg/mL), or recombinant CYP450s (15 nM). […] After a 5 min preincubation at 37°C, the NADP^+ (1 mM, 20 μL) was added into the mixture to initiate the reaction. The reaction was terminated by the addition of methanol (200 μL) with internal standard. The mixture was kept on ice until it was centrifuged at 20 000 ×g for 10 min at 4°C. Aliquots of supernatants were stored at −40°C until analysis. Control incubations without NADPH or without substrate or without microsomes were carried out to ensure that the formation of metabolites was microsomes and NADPH dependent. All incubations throughout the study were carried out in at least three independent experiments with standard deviations (SD) generally below 10%.
(§4) Inhibition study was conducted using the above incubation system consisting of liver microsomes, NADPH-generating system, probe substrate at the concentration of about K m value, and xanthotoxol (or the control inhibitor). […]

[3] = target: T2, CYP2A6 (Homo sapiens, UniProt P11509); type: in vitro ADME; conditions: 100 μM, pH 7.4
T2 construct: The HLMs were prepared from eleven individual human donor livers; tissue Research Institute for Liver Disease Co. (Shanghai, China); host or cells: human liver microsomes, pool of eleven donors
T2 sequence (P11509 1-494): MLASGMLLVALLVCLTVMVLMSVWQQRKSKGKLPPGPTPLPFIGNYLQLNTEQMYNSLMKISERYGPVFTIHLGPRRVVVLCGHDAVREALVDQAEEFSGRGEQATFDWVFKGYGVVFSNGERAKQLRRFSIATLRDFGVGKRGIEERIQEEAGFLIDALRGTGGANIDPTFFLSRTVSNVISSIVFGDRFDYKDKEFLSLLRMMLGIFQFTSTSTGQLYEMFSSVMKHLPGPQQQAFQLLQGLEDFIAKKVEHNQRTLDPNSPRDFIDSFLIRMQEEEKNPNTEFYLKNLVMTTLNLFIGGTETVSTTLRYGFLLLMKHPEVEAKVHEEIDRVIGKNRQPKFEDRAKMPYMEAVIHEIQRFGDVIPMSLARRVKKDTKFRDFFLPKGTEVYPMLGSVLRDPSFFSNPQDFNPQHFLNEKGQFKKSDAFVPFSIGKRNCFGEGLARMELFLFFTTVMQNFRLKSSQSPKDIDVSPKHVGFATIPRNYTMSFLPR
Experimental: as §1, §2, §3, §4

[4] = target: T3, CYP2E1 (Homo sapiens, UniProt P05181); type: in vitro ADME; conditions: 100 μM, pH 7.4
T3 construct: The HLMs were prepared from eleven individual human donor livers; tissue Research Institute for Liver Disease Co. (Shanghai, China); host or cells: human liver microsomes, pool of eleven donors
Experimental: as §1, §2, §3, §4

[5] = target: T4, CYP2C8 (Homo sapiens, UniProt P10632); type: in vitro ADME; conditions: 100 μM, pH 7.4
T4 construct: The HLMs were prepared from eleven individual human donor livers; tissue Research Institute for Liver Disease Co. (Shanghai, China); host or cells: human liver microsomes, pool of eleven donors
T4 sequence (P10632 1-490): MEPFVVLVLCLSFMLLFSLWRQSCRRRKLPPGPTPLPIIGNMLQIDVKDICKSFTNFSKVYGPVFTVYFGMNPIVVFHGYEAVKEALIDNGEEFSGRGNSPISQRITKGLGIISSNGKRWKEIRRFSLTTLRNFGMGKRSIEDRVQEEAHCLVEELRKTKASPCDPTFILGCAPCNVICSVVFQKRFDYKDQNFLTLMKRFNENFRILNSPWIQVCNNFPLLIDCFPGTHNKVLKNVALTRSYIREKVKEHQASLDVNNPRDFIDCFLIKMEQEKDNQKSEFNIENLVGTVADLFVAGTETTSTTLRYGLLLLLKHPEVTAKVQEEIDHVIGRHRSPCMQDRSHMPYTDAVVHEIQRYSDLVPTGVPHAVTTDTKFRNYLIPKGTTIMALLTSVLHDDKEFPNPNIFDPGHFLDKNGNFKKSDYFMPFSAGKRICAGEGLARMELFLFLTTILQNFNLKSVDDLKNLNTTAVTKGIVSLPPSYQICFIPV
Experimental: as §1, §2, §3, §4

[6] = target: T3, CYP2E1; type: in vitro ADME; conditions: recombinant enzyme, 30 min, 10 mM, pH 7.4
Experimental: as §3
The enzymes involved in the xanthotoxol metabolism were investigated using cDNA-expressed human P450 isoforms including CYP3A4, CYP2D6, CYP2E1, CYP2C9, CYP2C19, and CYP1A2. The incubation for each isoenzyme was carried out as described for the liver microsomal study. […]

[7] = type: in vitro ADME; conditions: human
Excerpt: The following equations were used to predict the xanthotoxol clearance in human:(2) CLint in vitro=Vmax/Km,CLint in vivo=CLint in vitro·SF,CLH=QH·fu·CLint in vivo/QH+fu·CLint in vivo, where SF (scaling factor) represents the milligrams of microsomal protein per gram of liver multiplied by the grams of liver weight; CLint is the intrinsic metabolic clearance; CLH is hepatic clearance; f u is the free fraction in blood (there are no data of xanthotoxol; here f u was arbitrarily proposed to be 1); Q H is the hepatic blood flow. The hepatic clearance of xanthotoxol was calculated using (2), and physiological parameters in human were described as follows: microsomal protein per gram of liver, liver weight per kilogram of body, and liver blood flow for human were 48.8 mg, 25.7 g, and 20.7 mL·min^−1·kg^−1, respectively.

[8] = target: T5, CYP3A4 (Homo sapiens, UniProt P08684); assay: Inhibition of testosterone 6β-hydroxylation in human liver microsomes; type: in vitro ADME
T5 construct: The HLMs were prepared from eleven individual human donor livers; tissue Research Institute for Liver Disease Co. (Shanghai, China); host or cells: human liver microsomes, pool of eleven donors
Experimental: as §1, §2, §3, §4

[9] = in vitro; type: in vitro ADME; conditions: human
Experimental: as §3
To estimate kinetic parameters of xanthotoxol and make sure that the formations of metabolites were in the linear range of both reaction time and the concentration of microsomes, xanthotoxol (0.25–200 μM) was incubated with pooled HLMs for 30 min. Reaction velocities and substrate concentrations were used to calculate the apparent K m and V max values according to nonlinear regression from the Michaelis-Menten equation (see (1)). CLint was calculated as V max/K m. In addition, the result was graphically represented on Eadie-Hofstee plots (velocities versus ratios of velocities to substrate concentrations) to determine whether the metabolism was monophasic or biphasic. Consider(1) V=Vmax·S/Km+S, where V max was the maximum reaction velocity, K m was the Michaelis constant that represented the substrate concentration at which the velocity was half of V max, V was the reaction velocity, and [S] was the substrate concentration.

[10] = HLMs, Lineweaver-Burk and Dixon plots

T5 sequence (P08684 whole entry): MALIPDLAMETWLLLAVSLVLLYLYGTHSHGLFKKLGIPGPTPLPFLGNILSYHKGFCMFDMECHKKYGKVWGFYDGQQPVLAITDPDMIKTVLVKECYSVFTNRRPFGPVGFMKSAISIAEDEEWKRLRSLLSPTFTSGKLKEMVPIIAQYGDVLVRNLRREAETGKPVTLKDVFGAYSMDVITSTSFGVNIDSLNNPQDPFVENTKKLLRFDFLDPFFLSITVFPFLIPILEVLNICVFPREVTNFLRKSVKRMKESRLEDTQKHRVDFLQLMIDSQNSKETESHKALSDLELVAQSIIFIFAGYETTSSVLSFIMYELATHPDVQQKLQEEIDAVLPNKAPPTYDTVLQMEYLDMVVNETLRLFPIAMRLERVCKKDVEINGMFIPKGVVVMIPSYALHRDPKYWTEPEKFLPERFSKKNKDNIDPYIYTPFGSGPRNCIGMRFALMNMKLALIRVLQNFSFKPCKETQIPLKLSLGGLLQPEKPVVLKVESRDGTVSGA
T3 sequence (P05181 whole entry): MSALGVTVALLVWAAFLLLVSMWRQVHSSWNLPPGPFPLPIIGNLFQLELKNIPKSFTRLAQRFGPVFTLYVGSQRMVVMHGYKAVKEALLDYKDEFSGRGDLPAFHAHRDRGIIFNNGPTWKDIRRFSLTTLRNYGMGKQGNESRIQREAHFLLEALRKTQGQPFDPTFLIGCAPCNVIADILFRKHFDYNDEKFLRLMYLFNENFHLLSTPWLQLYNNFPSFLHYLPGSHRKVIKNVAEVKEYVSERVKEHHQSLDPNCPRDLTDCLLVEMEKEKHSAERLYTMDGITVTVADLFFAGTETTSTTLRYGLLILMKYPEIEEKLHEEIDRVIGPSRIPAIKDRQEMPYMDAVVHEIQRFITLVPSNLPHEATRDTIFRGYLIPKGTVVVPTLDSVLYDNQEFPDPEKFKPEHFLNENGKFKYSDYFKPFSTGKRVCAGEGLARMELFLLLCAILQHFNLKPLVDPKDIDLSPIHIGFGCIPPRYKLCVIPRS

| SMILES | inhibition against metabolite production [1] | IC50 [2] [µM] | Ki [2] [µM] | type of inhibition of CYP1A2 [2, 10] | inhibited the activity of CYP2A6 [3] [%] | inhibited the activity of CYP2E1 [4] [%] | inhibited the activity of CYP2C8 [5] [%] | amount of metabolite M generated compared to CYP1A2 level [6] [%] | hepatic clearance (CLH) [7] | percentage of CLH versus hepatic blood flow (QH)% [7] [%] | clearance classification ([7]; microsomes) | IC50 [8] [µM] | Ki [8] [µM] | type of inhibition of CYP3A4 [8, 10] | Vmax of xanthotoxol metabolism ([9]; 30 min, pH 7.4) [nmol/min/mg] | Intrinsic clearance (CLint) ([9]; microsomes, pH 7.4) [µL/min/mg] | microsomal CLint ([9]; microsomes, pH 7.4, Intrinsic clearance (CLint)) [µL/min/mg] | Km at 30 min ([9]; pH 7.4) [µM] |
| --- | --- | --- | --- | --- | --- | --- | --- | --- | --- | --- | --- | --- | --- | --- | --- | --- | --- | --- |
| Nn1nnc2ccccc21 [Aminobenzotriazole (ABT), 1-aminobenzotriazole] | potent inhibition | – | – | – | – | – | – | – | – | – | – | – | – | – | – | – | – | – |
| O=c1ccc2cc3ccoc3c(O)c2o1 [xanthotoxol, Xanthotoxol] | – | 27.8 | 21.1 | noncompetitive | 82.1 | 25.9 | 52.1 | 7.3 | 15.91 mL·min^−1·kg^−1 body weight | 76.8 | high-clearance drug | 7.43 | 2.22 | noncompetitive | 0.55 | 65 | 60 | 8.46 |
